Series [1] can be described thus: Analysis of metabolites in mouse plasma (radio-HPLC). It is filed as in vivo, mice. As to conditions: for Percentage of intact tracer in plasma: mouse plasma, 30 min post-injection, radio-HPLC, n=4; for Metabolism in vivo (mouse plasma): within 30 min post-injection. As for the experimental part:
[^11C]1 (37–56 MBq/0.73–0.95 nmol) or [^11C]2 (46–61 MBq/1.1–1.5 nmol) was intravenously injected into mice (aged 7–9 weeks, weighing 33–43 g, n = 4). Mice were euthanized by cervical dislocation at 30 min post-injection. Blood samples taken by heart puncture were collected into heparinized syringes. Samples were centrifuged at 13,000×g (Model 5500, KUBOTA, Tokyo, Japan) for 3 min at 4 °C to obtain plasma (0.1–0.2 mL). Plasma samples were added to equivalent volumes of 1 mol/L ammonium acetate solution. Samples were directly loaded into the injector loop, and analyzed using the combination of column-switching HPLC and on-line solid-phase extraction as a modification of the previously described procedures (Chitneni et al. [2008]; Gillings [2009]; Greuter et al. [2005]; Hilton et al. [2000]; Kawamura et al. [2013]). HPLC analysis was performed using the radio-HPLC system for metabolite analysis mentioned in the ‘General’ section above, and also using a Cadenza HS-C18 column (3 μm mesh, 10 mm i.d. × 150 mm length; Imtakt, Kyoto, Japan) fitted with a Cadenza HS-C18 guard cartridge (3 μm mesh, 10 mm i.d. × 8 mm length; Imtakt). Elution was performed using a 0.1 mol/L ammonium acetate solution for 3 min after loading, a mixture of 90% acetonitrile solution and water (0:100 to 40:60, vol./vol.) from 3 to 4 min after loading, and then a mixture of 90% acetonitrile solution and water (40:60, vol./vol.) from 4 to 12 min after loading. The flow rate was 4 mL/min. The retention times of [^11C]1 and [^11C]2 were 10.0 and 10.5 min, respectively.

Series [2] is described as follows: Metabolite analysis of mouse plasma after co-injection of [^11C]1 with 1. As to conditions: 30 min after co-injection of [^11C]1 with 1 (50 mg/kg), radio- and UV-HPLC. It is filed as in vivo, mice. As for the experimental part: In addition, the effects of co-injection of [^11C]1 with 1 on the results of metabolite analyses of plasma were investigated. [^11C]1 (26-30 MBq/0.38-0.45 nmol) and a solution of 1 (50 mg/kg b.w. in water containing 20% Tween 80) were intravenously co-injected into mice (aged 7-9 weeks, weighing 35-39 g, n = 4). Mice were euthanized by cervical dislocation at 30 min post-injection. Blood samples taken by heart puncture were collected into heparinized syringes. The samples were centrifuged at 13,000×g (Model 5500, KUBOTA, Tokyo, Japan) for 3 min at 4 °C to obtain plasma (0.2 mL). Plasma samples were added to equivalent volumes of acetonitrile, and mixtures were centrifuged at 20,000×g for 2 min. The precipitate was added to 0.2 mL of acetonitrile, and this mixture was centrifuged at 20,000×g for 2 min to obtain the supernatant. The mixed supernatant was added to 0.2 mL of water, and this solution was loaded into the injector loop. HPLC analysis was performed using the abovementioned radio-HPLC system for metabolite analysis, and also a […] column (5 μm mesh, 10 mm i.d. × 150 mm length; YMC, Kyoto, Japan). Elution was performed using a mixture of 90% acetonitrile solution and 0.1 mol/L ammonium acetate solution (45:55, vol./vol.). The flow rate was 4 mL/min.

Turning to `COC(=O)C1=C(C)NC(C)=C(C(=O)OC)C1c1cccc(NC(=O)NCCCN2CCC(c3cccc(O[11CH3])c3)CC2)c1` [[^11C]1], in series [1], the “Percentage of intact tracer in plasma” value is recorded as 11.8 ± 2.5% and the “Metabolism in vivo (mouse plasma)” value is reported as “rapidly metabolized”. For the same compound, the “Metabolites found in mouse plasma” value in series [2] was “rapidly metabolized into its unlabeled desmethyl analog 2 and radiolabeled components”.

As to `COC(=O)C1=C(C)NC(C)=C(C(=O)OC)C1c1cccc(N[11C](=O)NCCCN2CCC(c3cccc(O)c3)CC2)c1` [[^11C]2], in series [1], the “Percentage of intact tracer in plasma” value is 19.9 ± 2.4% and the “Metabolism in vivo (mouse plasma)” value is listed as “rapidly metabolized”.

The values above are taken from paper PMC6379498, “Radiosynthesis and in vivo evaluation of ^11C-labeled BMS-193885 and its desmethyl analog as PET tracers for neuropeptide Y1 receptors” (EJNMMI Radiopharmacy and Chemistry, 2019).
